Measured values from US7932264B2, “Sinomenine derivatives and preparation and uses thereof” (priority 2005, dated 2011).

Experiments:
Type in all cases: cell-based
[1] = tested on: LPS-induced IL-6 production; test: Inhibition of LPS-induced IL-6 production in human whole blood culture; settings: LPS 10 ng/ml, 6 h; for IC50: human whole blood culture, IC50 by program calcdemo, read-out: IC50 to inhibit LPS-induced IL-6 production
Protocol: (§1) Human blood sample (−20 ml) was taken from a peripheral venous (10 ml) of a healthy volunteer (20-50 years old, nonsmoker) using sterile endotoxin-free ethylenediaminetetraacetic (EDTA) tube and was immediately processed. The blood samples were divided into three different experimental conditions (groups): control, stimulating with LPS alone and LPS plus testing compound. Each group contained five blood samples from different individuals. In control group, 100 μl of whole blood sample were diluted with 900 μL of RPMI 1640 in 24 wells plate. In LPS only group or LPS plus testing compound group, 100 ul of whole blood were diluted with 1 μl testing compound or DMSO and 889 ul of RPMI 1640 (RPMI 1640 was consisted of 25 mM Hepes supplemented with 100 U/mL penicillin, 100 μg/mL streptomycin, 4 mM 1-glutamine, and 10% fetal calf serum) All samples from the three groups were incubated in 37° C. and 5% CO2 for 15 minutes, then 10 μl LPS (1 μg/ml) was added into these samples except samples of control group, and was kept in 37° C. and 5% CO2 for 6 h. The samples were placed on ice for 3 minutes and centrifuged for 10 min at 4° C. and 1500 g. The supernatants of the whole blood culture were taken and kept at −80° C. for analysis of TNF-α, IL-1, IL-6 and IL-8.
(§2) Since compounds #54 and #44 we obtained were mixed chemical isomers, these two compounds have been excluded from the IC50 experiments. […] concentrations of the compounds (#20, #33, #37, #39, and #48) were tested: 10^−9, 10^−8, 10^−7, 10^−6, 10^−5 and 10^−4 Molar/L. The parent compound, sinomenine, was used as a control. The IC50 was determined by program calcdemo.
(§3) The inhibition of tested compounds on LPS-induced IL-6 production was assessed using human IL-6 Elisa Kit (Lot number 054204D) from Biosource (Carlsbad, Calif., USA). The methods are briefly described according to the instruction in the Kit as below, all reagents and solutions were supplied with the Kit:
(§4) 1) Reagents and solutions were properly prepared for the experiments to determine bioactivity according to the instruction of the Kit.
2) 50 μL of standard solution supplied with the Kit, blood sample with testing compound and blood sample with LPS alone was added per well. Then, 50 μL of Biotin Conjugate was added to each well. The well was covered with the adhesive strip. Then those wells were incubated for 2 hours at room temperature. 3) Each well was aspirated and washed by filling wash buffer (600 μL) using an autowasher. The liquid was completely removed at each step to ensure good performance. This process was repeated three times for a total of four washes. 4) 100 μL of Streptavidin-HRP working solution was added to each well and the well was covered with a new adhesive strip, incubated for 30 min at room temperature. 5) The same aspiration and wash procedures were repeated as described in step 3. 6) 100 μL of Stabilized Chromogen was added to each well and incubated for 30 minutes at room temperature. These wells were protected from light. 7) 100 μL of Stop Solution was added to each well. 8) The optical density of each well was determined within 30 minutes using a microplate reader set to 450 nm.
The blood samples were incubated in the presence of LPS (concentration: 10 ng/ml) for 6 h. The effects of sinomenine (SIN) on LPS-induced IL-6 production were also examined. […]

[2] = tested on: LPS-induced IL-1 production; test: Inhibition of LPS-induced IL-1 production in human whole blood culture; settings: LPS 10 ng/ml, 6 h; for IC50: human whole blood culture, IC50 by program calcdemo, read-out: IC50 to inhibit LPS-induced IL-1 production
Protocol: as §1, §2
The inhibition of tested compounds on LPS-induced IL-1 production was assessed using human IL-1βEnzyme Immunometric Assay Kit (Lot number 145020) from Cayman Chemical Company (MI, USA). The methods are briefly described according to the instructions supplied with the Kit. All reagents and solutions were supplied with the Kit:
1) Reagents and solutions were properly prepared for the experiments to determine bioactivity according to the instruction.
2) Standard solution provided with the Kit, blood sample with testing compound and blood sample with LPS alone which were prepared as above described, 50 ul for each of these solution or blood samples, was added to each well. Then, 10 μL of DTT, 5 μL of mouse serum and 100 μL of Fab′ were also added into each well together. The well was covered with the adhesive strip. Then those wells were incubated overnight at 4° C. A plate layout was provided to record standards and samples assayed. 3) Each well was washed by filling wash buffer (600 μL) using an autowasher. The liquid was completely removed at each step to ensure good performance. This process was repeated four times for a total of five washes. 4) 200 μL of Ellman's reagent was added to each well and the plate was covered with a piece of dark paper, incubated for 4 hours at room temperature with gentle shaking. 5) The optical density of each well was determined using a microplate reader set to 412 nm.
The blood samples were incubated in the presence of LPS (concentration: 10 ng/ml) for 6 h. The inhibition of Sinomenine (SIN) on LPS-induced IL-1 production was also examined. Because all tested compounds including SIN had no effect at concentration of 10^−9 on LPS-induced IL-1 production, the levels of LPS-induced IL-1 production at 10^−9 of tested compounds in the figures were equivalent to the levels of IL-1 in blood samples with LPS alone. […]

[3] = tested on: LPS-induced TNF-α production; test: Inhibition of LPS-induced TNF-α production in human whole blood culture; settings: LPS 10 ng/ml, 6 h; for IC50: IC50 by program calcdemo, read-out: IC50 to inhibit LPS-induced TNF-α production
Protocol: as §1
The samples from above described protocol were used to determine the release of TNF-α from whole blood culture induced by LPS stimulation and the inhibition by each of 22 tested compounds on the LPS-induced TNF-α production. The TNF-α production was assessed using human TNF-α Enzyme Immunometric Assay Kit (Lot. 235123) from R&D Systems (MN, USA), the detail methods are described as the instruction of the Kit. The concentration of LPS-induced TNF-α production in whole blood culture was 884.2±329.8 pg/ml. These 22 compounds were divided into three groups according to their inhibition potencies on the LPS-induced TNF-α production:
as §2
The blood samples were incubated in the presence of LPS (concentration. 10 ng/ml) for 6 h. Sinomenine (SIN) was used as control. Because all tested compounds including SIN had no effect at concentration of 10^−9 on LPS-induced TNF-α production, the levels of LPS-induced TNF-α production at 10^−9 of tested compounds in the figures were equivalent to the levels of TNF-α in blood samples with LPS alone. Data in panel a of the figures (a1-a6) present the absolute values of TNF-α; data in panel b (b1-b6) present the percentage inhibition of the tested compounds on LPS-induced TNF-α production. All data were Mean±SD (n=6).

[4] = tested on: LPS-induced IL-8 production; test: Inhibition of LPS-induced IL-8 production in human whole blood culture; settings: LPS 10 ng/ml, 6 h; for IC50: human whole blood culture, IC50 by program calcdemo, read-out: IC50 to inhibit LPS-induced IL-8 production
Protocol: as §1, §2
as §3, with “IL-8” for “IL-6”, “061302B)” for “054204D)”
as §4
2) Standard solution supplied with the Kit, blood sample with testing compound and blood sample with LPS alone was (50 μL of each item) added into per well. Then, 50 μL of Biotin Conjugate was also added to each well. The well was covered with the adhesive strip. Then those wells were incubated for 1.5 hours at room temperature. 3) Each well was aspirated and washed by filling wash buffer (600 μL) using an autowasher. The liquid was completely removed at each step to ensure good performance. This process was repeated three times for a total of four washes. 4) 100 μL of Streptavidin-HRP working solution was added to each well and the well was covered with a new adhesive strip, incubated for 30 min at room temperature. 5) The same aspiration and wash procedures were repeated as described in step 3. 6) 100 μL of Stabilized Chromogen was added to each well and incubated for 30 minutes at room temperature. These wells were protected from light. 7) 100 μL of Stop Solution was added to each well. 8) The optical density of each well was determined within 30 minutes using a microplate reader set to 450 nm.
The blood samples were incubated in the presence of LPS (concentration: 10 ng/ml) for 6 hours. The effects of sinomenine (SIN) on LPS-induced IL-8 production were also examined. […]

COC1=CC2[C@@H]3Cc4ccc(OC)c(O)c4[C@]2(CCN3C)CC1=O (stereo partly drawn) [Compound 1, sinomenine]
effect on LPS-induced IL-6 production at concentration of 10^−9 ([1]; 10^−9 mol/L): no effect
IC50 [1]: 1700 µM
effect on LPS-induced IL-1 production at concentration of 10^−9 ([2]; 10^−9 mol/L): no effect
effect on LPS-induced TNF-α production at concentration of 10^−9 ([3]; 10^−9 mol/L): no effect
effect on LPS-induced IL-8 production at concentration of 10^−9 ([4]; 10^−9 mol/L): no effect
IC50 [4]: 74 µM

COC1=CC2[C@@H]3Cc4ccc(OC)c(O)c4[C@]2(CCN3C(=O)c2cc(C)cc(C)c2)CC1=O (stereo partly drawn) [Compound 9]
inhibition at 10 µM ([3]; compound 10^−5 mol/L, human whole blood culture, read-out: inhibition of LPS-induced TNF-α production compared to LPS alone): < 30%

COC(=O)c1cccc(C)c1S(=O)(=O)N1CC[C@@]23CC(=O)C(OC)=C[C@@H]2[C@@H]1Cc1ccc(OC)c(O)c13 [Compound 33]
IC50 [1]: 8.7 µM
IC50 [2]: 100 µM
IC50 ([3]; human whole blood culture): 4.4 µM
IC50 [4]: 7300 µM

COC1=C[C@@H]2[C@@H]3Cc4ccc(OC)c(O)c4[C@]2(CCN3C(=O)c2cccnc2)CC1=O [Compound 37]
IC50 [2]: 8.8 µM
IC50 ([3]; human whole blood culture): 420 µM
IC50 [4]: 7600 µM

COC1=C[C@@H]2[C@@H]3Cc4ccc(OC)c(O)c4[C@]2(CCN3C(=O)c2ccc(C)cc2)CC1=O [Compound 39]
IC50 [1]: 5.3 µM
IC50 [2]: 4900 µM
IC50 ([3]; human whole blood culture): 13 µM

COc1ccc2c(c1OC)C13CCN(C)C(C2)C1CC=NN(S(=O)(=O)c1ccc(C)cc1)C(O)C3 (stereo not drawn) [Compound 48]
IC50 [1]: 1000 µM
IC50 [2]: 9500 µM
IC50 ([3]; human whole blood culture): 760 µM
IC50 [4]: 3800 µM
